Data as given in publication PMC8838850, “Synthesis, Antimicrobial, Anti-Virulence and Anticancer Evaluation of New 5(4H)-Oxazolone-Based Sulfonamides” (Molecules, 2022).
Values after ≈ are worked out from the molar mass of the structure shown. Values joined by “and” are separate entries in the source; they are usually repeats but may differ in a detail not shown here. Equal entries are not always repeated. Where two headings read alike, the source gives them in different places.

Assays:
[1] = system: Pseudomonas aeruginosae ATCC 47085; experiment: MIC by agar dilution; type: cell-based, Pseudomonas aeruginosa; details: 20 h
Description: (§1) The MICs of the synthesized compound were determined by agar dilution method according to the Clinical Laboratory and Standards Institute Guidelines (CLSI, 2015). Briefly, the tested strains were incubated overnight in tryptic soy broth (TSB) (Oxoid, United Kingdom) and then diluted in Muller–Hinton (MH) broth (Oxoid, United Kingdom) to turbidity approximating to the equivalent of 0.5 McFarland standard. The suspensions were further diluted with sterile saline (1:10) and standardized inoculums (approximately 10^4 CFU per spot) were spotted on the surfaces of MH agar (Oxoid, United Kingdom) plates containing different concentrations of tested compounds and a control plate. The MICs were the lowest concentrations that inhibit growth on the plates after incubation at 37 °C for 20 h.

[2] = system: HPDE; experiment: SRB cell viability assay, normal cells; type: cell-based
Description: Firstly, to determine the cell viability, HPDE cell lines were treated with all new synthesized compounds 9a–k for 96 h using sulforhodamine B (SRB) assay. All newly synthesized compounds were proven non-toxic with IC50 more than […] (Table 2).
The pancreatic human cancer cell lines BxPC-3 and Panc-1, the human hepatocellular carcinoma (HepG-2), and the normal immortalized pancreatic cell line HPDE, that were used in this study, were obtained from the American Type Culture Collection (Rockville, USA). Cell lines were cultured and treated with the tested compounds or dimethyl sulfoxide (DMSO) as previously described. Cells were cultivated in DMEM medium (Invitrogen, Carlsbad, CA, USA), supplemented with streptomycin, penicillin and fetal bovine serum (FCS) (Invitrogen, Carlsbad, CA, USA).
(§2) The sulforhodamine B (SRB) assay was employed to assess the anti-proliferative effects of tested compounds on cancer cells. Cell lines were incubated and regularly treated with DMSO or increasing doses of tested compounds for 48 h. The cells were fixed with 10% trichloroacetic acid and stained with SRB fluorescent dye for 30 min. Then, the bounded SRB dye to cellular proteins was dissolved in 10 mM Tris base after washing excess dye with 1% acetic acid. The absorbance was measured at 510 nm in a reader (Biotek, Winooski, VT, USA).

[3] = system: Panc-1; experiment: SRB cellular proliferation assay; type: cell-based, human; details: Panc-1 cells, mean ± SD (n = 3)
Description: as §2, with “The pancreatic human cancer cell lines BxPC-3 and Panc-1, the human hepatocellular carcinoma (HepG-2), and the normal immortalized pancreatic cell line HPDE, that were used in this study, were obtained from the American Type Culture Collection (Rockville, USA). Cell lines were cultured and treated with the tested compounds or dimethyl sulfoxide (DMSO) as previously described. Cells were cultivated in DMEM medium (Invitrogen, Carlsbad, CA, USA), supplemented with streptomycin, penicillin and fetal bovine serum (FCS) (Invitrogen, Carlsbad, CA, USA). The sulforhodamine” for “The sulforhodamine”

[4] = system: HepG-2; experiment: SRB cellular proliferation assay; type: cell-based, human; details: mean ± SD (n = 3)
Description: as §2, with “The pancreatic human cancer cell lines BxPC-3 and Panc-1, the human hepatocellular carcinoma (HepG-2), and the normal immortalized pancreatic cell line HPDE, that were used in this study, were obtained from the American Type Culture Collection (Rockville, USA). Cell lines were cultured and treated with the tested compounds or dimethyl sulfoxide (DMSO) as previously described. Cells were cultivated in DMEM medium (Invitrogen, Carlsbad, CA, USA), supplemented with streptomycin, penicillin and fetal bovine serum (FCS) (Invitrogen, Carlsbad, CA, USA). The sulforhodamine” for “The sulforhodamine”

[5] = system: BxPC-3; experiment: SRB cellular proliferation assay; type: cell-based, human; details: BxPC-3 cells, mean ± SD (n = 3)
Description: as §2, with “The pancreatic human cancer cell lines BxPC-3 and Panc-1, the human hepatocellular carcinoma (HepG-2), and the normal immortalized pancreatic cell line HPDE, that were used in this study, were obtained from the American Type Culture Collection (Rockville, USA). Cell lines were cultured and treated with the tested compounds or dimethyl sulfoxide (DMSO) as previously described. Cells were cultivated in DMEM medium (Invitrogen, Carlsbad, CA, USA), supplemented with streptomycin, penicillin and fetal bovine serum (FCS) (Invitrogen, Carlsbad, CA, USA). The sulforhodamine” for “The sulforhodamine”

[6] = system: Candida albicans ATCC 10231; experiment: MIC by agar dilution (antifungal); type: cell-based; details: Candida albicans ATCC 10231
Description: as §1

[7] = system: Aspergillus niger ATCC 16404; experiment: MIC by agar dilution (antifungal); type: cell-based
Description: as §1

[8] = system: Escherichia coli ATCC 10536; experiment: MIC by agar dilution; type: cell-based; details: 20 h
Description: as §1

[9] = system: Klebsiella pneumoniae ATCC 27736; experiment: MIC by agar dilution; type: cell-based; details: 20 h
Description: as §1

[10] = system: Micrococcus spp. ATCC 10240; experiment: MIC by agar dilution; type: cell-based; details: 20 h
Description: as §1

[11] = system: Staphylococcus epidermidis ATCC 12228; experiment: MIC by agar dilution; type: cell-based; details: 20 h
Description: as §1

[12] = system: Salmonella typhimurium ATCC 14028; experiment: MIC by agar dilution; type: cell-based; details: 37 °C, 20 h
Description: as §1

[13] = system: Staphylococcus aureus ATCC 6538; experiment: MIC by agar dilution; type: cell-based; details: 20 h
Description: as §1

(E)-4-Methyl-N-(2-(4-(naphthalen-1-ylmethylene)-5-oxo-4,5-dihydrooxazol-2-yl)phenyl)benzenesulfonamide [Compound 9h]
Minimum inhibitory concentration (MIC) ([1]; 37 °C): >32 µg/mL | IC50 ([2]; HPDE normal immortalized cell line, 96 h): >50000 µg/mL | IC50 [3]: 14.72 ± 2.87 µg/mL | IC50 ([4]; HepG-2 cells): 17.34 ± 0.96 µg/mL | IC50 [5]: 12.60 ± 0.62 µg/mL | Minimum inhibitory concentration (MIC) [6]: 4 µg/mL and 2 µg/mL | Minimum inhibitory concentration (MIC) [7]: 8 µg/mL and 4 µg/mL | Minimum inhibitory concentration (MIC) ([8]; 37 °C): >32 µg/mL | Minimum inhibitory concentration (MIC) ([9]; 37 °C): >32 µg/mL | Minimum inhibitory concentration (MIC) ([10]; 37 °C): >32 µg/mL | Minimum inhibitory concentration (MIC) ([11]; 37 °C): >32 µg/mL | Minimum inhibitory concentration (MIC) [12]: >32 µg/mL | Minimum inhibitory concentration (MIC) ([13]; 37 °C): >32 µg/mL

Cc1ccc(S(=O)(=O)Nc2ccccc2C2=N/C(=C/c3ccncc3)C(=O)O2)cc1 [Compound 9k, (E)-4-Methyl-N-(2-(5-oxo-4-(pyridin-4-ylmethylene)-4,5-dihydrooxazol-2-yl)phenyl)benzenesulfonamide]
MIC ([1]; ATCC47085, 37 °C, read-out: Minimum inhibitory concentration (MIC)): > 32 µg/mL | IC50 ([2]; normal HPDE cells, read-out: IC50): > 50 µg/mL | melting point: 210 to 212 °C | IC50 ([3]; Homo sapiens, read-out: IC50): 19.9 ± 3.35 µg/mL (≈ 47.4 µM) | IC50 ([4]; Homo sapiens, HepG2, HepG-2 cells, read-out: IC50): 33.1 ± 5.12 µg/mL (≈ 78.9 µM) | IC50 ([5]; Homo sapiens, read-out: IC50): 7.27 ± 1.49 µg/mL (≈ 17.3 µM) | MIC ([7]; ATCC16404, 20 h, read-out: Minimum inhibitory concentration (MIC)): 16 µg/mL (≈ 38.1 µM) | MIC ([7]; ATCC16404, read-out: Minimum inhibitory concentration (MIC)): > 32 µg/mL | MIC ([8]; ATCC10536, 37 °C, read-out: Minimum inhibitory concentration (MIC)): 16 µg/mL (≈ 38.1 µM) | MIC ([9]; ATCC27736, 37 °C, read-out: Minimum inhibitory concentration (MIC)): > 32 µg/mL | MIC ([10]; ATCC10240, 37 °C, read-out: Minimum inhibitory concentration (MIC)): 2 µg/mL (≈ 4.77 µM) | MIC ([11]; ATCC12228, 37 °C, read-out: Minimum inhibitory concentration (MIC)): 4 µg/mL (≈ 9.54 µM) | MIC ([12]; Salmonella enterica, read-out: Minimum inhibitory concentration (MIC)): > 32 µg/mL | MIC ([13]; ATCC6538, 37 °C, read-out: Minimum inhibitory concentration (MIC)): 4 µg/mL (≈ 9.54 µM)
